From US7378387B2, “Method of suppressing immune response by reducing intracellular content of glutathione in macrophages and monocytes” (Ajinomoto Co., Inc., priority 1997, dated 2008)

Assays:
[1] = tested on: macrophage-like cells from tissues of rheumatoid arthritis patients; assay: Intracellular GSH by ACAS in macrophage-like cells from tissues of rheumatoid arthritis patients (Example 17); type: cell-based, human; conditions: 3 hours; for relative ratio of oxidative macrophages (reduced amount of intracellular glutathione) compared with saline-added group: added at 2 mM
Protocol: Synovial tissue was aseptically sampled from tissues resected during joint surgery. The sampled synovial tissue was rinsed in phosphate buffer, from which the surface was peeled off in a petri dish containing the same phosphate buffer. Then, the resulting synovial tissue was cut into pieces with a pair of scissors. To the pieces were added 2% hyaluronidase (manufactured by Sigma), 0.2% DNase (derived from bovine pancreas) and 5% collagenase, for enzymatic treatment at 37° C. for 2 hours. After discarding the resulting debris, a cell fraction recovered by centrifugation was adjusted to 5×10^5 cells/ml in a phenol red-free DMEM culture medium supplemented with 10% FCS (manufactured by Nikken Biology Co.). For 3 hours, the cells were allowed to adhere to the plastic surface. Plastic surface adherent macrophage-like cells harvested with a rubber policeman were then subjected to rinsing in combination with centrifugation three times using the culture medium under ice cooling. The resulting cells were designated as synovial tissue-derived macrophages and were then subjected to the following experiments.
By the same manner as in Example 3, macrophage-like cells were collected from tissues of rheumatoid arthritis patients, and were then suspended and adjusted in a phenol red-free RPMI 1640 culture medium supplemented with 10% fetal calf serum to 3×10^6 cells/ml. The suspension was divided in 100-μl portions on Lab-Tek Chamber Slide (#136439; manufactured by NUNC, CO.), for culturing in 5% CO2 at 37° C. for 3 hours; after discarding the nonadherent cells, the 200-μl serum-free culture medium further containing any of the following chemical agents was fed to the resulting culture, for reaction for 3 hours; and then, the resulting culture was rinsed three times, followed by addition of the serum-free culture medium of 200 μl and addition of monochlorobimane to a final concentration of 10 μM, for reaction for 30 minutes. The amount of intracellular GSH was assayed by imaging analysis with an ACAS system (manufactured by Meridian Co.).

[2] = tested on: insulin-non-dependent diabetes mellitus; assay: Blood sugar level in db/db mice (Example 26); type: in vivo; conditions: intraperitoneal, age 4 to 9 weeks, three times per week; at satiation; saline 100
Text: db/db mice purchased from Nippon Clair, Co. were naturally mated together. Among the off spring mice, a colony of db/db mice with a high frequency of the spontaneous onset of insulin-non-dependent diabetes mellitus was established. Male db/db mice from the colony were used for the present experiment. Chemical agents were intraperitoneally administered to the db/db mice aged 4 to 9 weeks three times per week, in total 18 times; and based on the level of blood sugar in the mice at satiation, the effects of the chemical agents on the improvement of the diseased conditions of insulin-non-dependent diabetes mellitus were followed once per week. The doses were the same as in Example 24.

IL-12 = IL-12 production of MΦ from JaK3 knock out mice (Example 6); type: in vivo; conditions: stimulation of LPS or IFNγ; 1 mg/ml in city water, 24 days; no production in control group
Protocol: The amount of IL-12 was determined through bioassay using cells of human T cell strain 2D6 (J. Leukocyte Biology, vol. 61, p. 346, 1997).
2D6 cells which had been incubated in an RPMI 1640 medium containing 500 pg/ml of recombinant human IL-12, 50 μM of 2-mercaptoethanol and 10% FCS (fetal calf serum) were moved to a tube, and centrifugally washed three times with the above-mentioned medium without IL-12 and cell density was adjusted to 1×10^5/ml. The cell suspension was added in an amount of 100 μl each to a 96-well flat bottom plate containing a sample serially diluted in advance with an RPMI 1640 medium containing 50 μM of 2-mercaptoethanol and 10% FCS in an amount of 100 μl each. […] The cells a harvested, and the radioactivity was measured using a β counter (Matrix 96, supplied by Packard).
(§1) Macrophages (MΦ) were prepared from knock out mice deficient in a molecule participating in a signal transduction system from a receptor, and the function of the redox system was analyzed. […]
(§2) Peritoneal cells were harvested from three groups of knock out mice, and stimulated with LPS, IL-2, IFNγ and a combination thereof. The NO production, the IL-6 production and the IL-12 production were measured. […] Then, the IL-6 production was analyzed. In LPS stimulation, the amount was detected as 962 pg/ml in the knock out mice derived MΦ culture, 122 pg/ml in the NAC group, and 82 pg/ml in the GSH-OEt group. […]

IL-6 = IL-6 production of MΦ from JaK3 knock out mice (Example 6); type: in vivo; conditions: LPS stimulation; 1 mg/ml in city water, 24 days; control knock out mice 962 pg/ml
Protocol: A stimulator was added to 1×10^6 MΦ, and the incubation was conducted at 37° C. for 2 days in a CO2 incubator. After centrifugation, the culture supernatant was collected.
The amount of IL-6 was determined using IL-6 dependent mouse hybridoma MH60 cells (J. Eur. Immunol., vol. 18, p. 951, 1988). One hundred microliters of the culture supernatant were added to 100 μl of the MH60 cell suspension adjusted to 1×10^5 cells/ml in a 10% FCS-containing RPMI medium, and the mixed solution was incubated at 37° C. for 2 days in a CO2 incubator. […] Immediately after the dissolution, an absorbance of 570 nm was measured with an immunometer (supplied by Bio-Rad).
as §1, §2

| SMILES | induction of oxidative macrophage with the reduced amount of intracellular glutathione ([1]; added at 2 μM) | Relative ratio % of blood sugar level, 6 weeks [2] [%] | Relative ratio % of blood sugar level, 7 weeks [2] [%] | Relative ratio % of blood sugar level, 8 weeks [2] [%] | amount of IL-12 (IL-12) [pg/mL] | relative ratio of oxidative macrophages (reduced amount of intracellular glutathione) compared with saline-added group [1] | relative ratio of oxidative macrophages (reduced amount of intracellular glutathione) compared with saline-added group ([1]; listed as glutathione ethyl ester) | IL-6 production (IL-6) [pg/mL] |
| --- | --- | --- | --- | --- | --- | --- | --- | --- |
| COC(=O)[C@H](CSSC[C@H](NC(C)=O)C(=O)OC)NC(C)=O [(NAC-OMe)2, N,N′-diacetylcystine dimethyl ester] | confirmed | 94 | 92 | 93 |  |  |  |  |
| CC(=O)N[C@@H](CSSC[C@H](NC(C)=O)C(=O)O)C(=O)O [(NAC)2, N,N′-diacetylcystine] |  | 95 | 100 | 98 |  |  |  |  |
| CCOC(=O)CNC(=O)[C@H](CS)NC(=O)CC[C@H](N)C(=O)O [GSH-OEt, glutathione monoethyl ester] |  |  |  |  | 610 | same action was also observed | decreased | 82 |
| CC(=O)N[C@@H](CS)C(=O)O [NAC, N-acetylcysteine, reference compound] |  |  |  |  | 420 |  |  | 122 |
